Measurements from patent US6605628B1, “Method of using 5-(arysulfonyl)-, 5-(arylsulfanyl)-and 5-(arylsulfanyl)thiazolidine-2,4-diones for inhibition of farnesyl-protein transferase” (Wyeth Holdings Corporation, priority 2001, dated 2003).

What was measured:
FPTase [1] = biological target: T1, FPTase (Homo sapiens, UniProt P49354+P49356); experiment: in vitro FTase Inhibition Assay, H-Ras used as substrate for farnesylation; type: biochemical
Experimental: (§1) Enzyme test procedure: FPTase inhibition in vitro assay was performed according to James, G. L., Brown, M. S., and Goldstein, J. L., Methods in Enzymology, 1995, 255, 38-46; and Garcia, M. A., et al., J. Biol. Chem., 1993, 268, 18415-18420.
(§2) Materials—Purified FPTase (Moomaw, J. F. and Casey, P. J., J. Biol. Chem., 1992, 267, 17438-17443), purified His6-Ras, inhibitor compounds at 10 mg/ml or 10 mM in 100% DMSO, ^3H-FPP (50,000 dpm/pmol) Amersham, TCA/SDS (6%/2%), TCA (6%), Glass fiber filters ([…]), vacuum manifold or 96 well filtration plates.
(§3) Methods—1. Dilute FPTase inhibitors from stock solutions to 2.5× in 2.5% DMSO, 10 mM DTT, 0.5% octyl-B-glucoside. 2. Solution #1 is added to FPTase reaction in a volume of […]. 3. Standard reaction mix, […], contains 50 mM Tris (7.5), 10 mM ZnCl2, 3 mM MgCl2, 20 mM KCl, 5 mM DTT, 0.2% octyl-B-glucoside, 1% DMSO, […] His6-Ras, 10 ng FPTase, and various concentrations of FPTase inhibitors. 4. Incubate for 30-90 min at 25° C. 5. Stop reactions with TCA/SDS (6%/2%), hold at 4° C. for 45-60 min. 6. Filter by manifold or 96 well plate, wash filter 3-5× with TCA (6%). 7. Add scintillant to filters, measure ^3H-FPP incorporation into Ras protein.
(§4) Analysis of Results—Percent inhibition by test compounds is determined by the following:
(§5) (cpm from precipitated Ras with test compounds)−(background cpm)×100=% inhibition.
(§6) (cpm from precipitated Ras without test compounds)−(background cpm)

FPTase [2] = biological target: T1, FPTase; experiment: in vitro FTase Inhibition Assay, K-Ras used as substrate for farnesylation; type: biochemical; conditions: Table I
Experimental: as §1, §2, §3, §4, §5, §6

| Molecule | IC50 (FPTase [1]; Table I, read-out: IC50 H-Ras*) [nM] | IC50 (FPTase [2]) [nM] | IC50 (FPTase [1]; Table II, read-out: IC50 (wi. H-Ras)) [nM] |
| --- | --- | --- | --- |
| COc1ccc(S(=O)(=O)C2(CCCC#Cc3cc(NC(=O)OCc4ccc([N+](=O)[O-])cc4)ccc3C)SC(=O)N(C(=O)OCc3ccc([N+](=O)[O-])cc3)C2=O)cc1 (stereo not drawn) [Example 227, 4-Nitrobenzyl 5-[(4-methoxyphenyl)sulfonyl]-5-{5-[2-methyl-5-({[(4-nitrobenzyl)oxy]carbonyl}amino)phenyl]pent-4-ynyl}-2,4-dioxo-1,3-thiazolidine-3-carboxylate] | 7 to 10 | 210 to 400 | – |
| O=C1NC(=O)C(CCCC#Cc2ccc(Cl)cc2)(S(=O)(=O)c2ccc(F)cc2)S1 (stereo not drawn) [Example 105, 5-[5-(4-Chlorophenyl)pent-4-ynyl]-5-(4-fluorobenzenesulfonyl)thiazolidine-2,4-dione] | 50 to 150 | 1500 to 1700 | – |
| O=C1NC(=O)C(CCCC#Cc2ccc(Cl)cc2)(S(=O)(=O)c2cccc3cccnc23)S1 (stereo not drawn) [Example 109, 5-[5-(4-Chlorophenyl)pent-4-ynyl]-5-(quinoline-8-sulfonyl)thiazolidine-2,4-dione] | 65 to 130 | 1400 to 2100 | – |
| COc1ccc(S(=O)(=O)C2(CCCC#Cc3cc(F)cc([N+](=O)[O-])c3)SC(=O)NC2=O)cc1 (stereo not drawn) [Example 133, 5-[5-(3-Fluoro-5-nitrophenyl)pent-4-ynyl]-5-(4-methoxybenzenesulfonyl)-thiazolidine-2,4-dione] | 40 to 200 | 54 to 1000 | – |
| Cc1ccc(C(=O)NC(C)(C)C)cc1C#CCCCC1(S(=O)(=O)c2ccc(I)cc2)SC(=O)NC1=O (stereo not drawn) [Example 147, N-tert-Butyl-3-{5-[5-(4-iodobenzenesulfonyl)-2,4-dioxothiazol-idin-5-yl]-pent-1-ynyl}-4-methyl-benzamide] | 6.8 to 210 | 80 to 100 | – |
| O=C1NC(=O)C(CCCC#Cc2ccc(Cl)cc2)(S(=O)(=O)c2ccc([N+](=O)[O-])cc2)S1 (stereo not drawn) [Example 110, 5-[5-(4-Chlorophenyl)pent-4-ynyl]-5-(4-nitrobenzenesulfonyl)thiazolidine-2,4-dione] | 400 | 7000 | – |
| COc1ccc(S(=O)(=O)C2(CCCC#Cc3cc(NC(=O)Nc4ccc(Cl)cc4)ccc3C)SC(=O)NC2=O)cc1 (stereo not drawn) [Example 189, N-(4-Chlorophenyl)-N′-[3-(5-{5-[(4-methoxyphenyl)sulfonyl]-2,4-dioxo-1,3-thiazolidin-5-yl}-1-pentynyl)-4-methylphenyl]urea] | 100 | 1200 | – |
| 5-[5-(2-Methyl-4-nitrophenyl)pent-4-ynyl]-5-[4-(pyridin-4-yloxy)-benzenesulfonyl]thiazolidine-2,4-dione [Example 128] | 1 to 32 | 20 to 220 | – |
| COC(=O)Nc1ccc(C)c(C#CCCCC2(S(=O)(=O)c3ccc(OC)cc3)SC(=O)NC2=O)c1 (stereo not drawn) [Example 178, (3-{5-[5-(4-Methoxybenzenesulfonyl)-2,4-dioxothiazolidin-5-yl]pent-1-ynyl}-4-methylphenyl)carbamic Acid Methyl Ester] | 17 to 32 | 10 | – |
| COc1ccc(S(=O)(=O)C2(CCCC#Cc3ccc(Cl)cc3)SC(=O)N(CCCn3ccnc3)C2=O)cc1 (stereo not drawn) [Example 233, 5-[5-(4-Chlorophenyl)pent-4-ynyl]-3-(3-imidazol-1-yl-propyl)-5-(4-methoxybenzenesulfonyl)-thiazolidine-2,4-dione] | 2900 | – | – |
| COc1ccc(S(=O)(=O)C2(CC#Cc3cccnc3)SC(=O)NC2=O)cc1 (stereo not drawn) [Example 167, 5-(4-Methoxybenzenesulfonyl)-5-(3-pyridin-3-ylprop-2-ynyl)-thiazolidine-2,4-dione] | 1500 | – | – |
| O=C1NC(=O)C(CC#Cc2ccccc2)(S(=O)(=O)c2ccc(Br)cc2)S1 (stereo not drawn) [Example 248, 5-(4-Bromo-benzenesulfonyl)-5-(3-phenyl-prop-2-ynyl)-thiazolidine-2,4-dione] | – | – | 450 |
